The source made the active and inactive calls. No cut-off for these calls is given here.
How the values were obtained:
Sitophilus zeamais [1] = assay: Insecticidal activity against adult Sitophilus zeamais assessed as mortality at 0.0625 ppm exposed for 14 days on wheat; type: functional
Cryptolestes ferrugineus [2] = assay: Insecticidal activity against adult Cryptolestes ferrugineus (rusty grain beetle) assessed as mortality at 0.075 ppm exposed for 7 days on wheat; type: functional; conditions: 168 h
Sitophilus zeamais [3] = assay: Reduction of progeny production in adult Sitophilus zeamais at 0.0875 to 0.0375 to ppm exposed on wheat; type: functional, organism-based
Sitophilus zeamais [4] = assay: Insecticidal activity against adult Sitophilus zeamais assessed as mortality at 0.05 ppm exposed for 7 days on wheat; type: functional
Cryptolestes ferrugineus [5] = assay: Insecticidal activity against adult Cryptolestes ferrugineus (rusty grain beetle) assessed as mortality at 0.05 ppm exposed for 5 days on wheat; type: functional; conditions: 120 h
Cryptolestes ferrugineus [6] = assay: Insecticidal activity against adult Cryptolestes ferrugineus (rusty grain beetle) assessed as mortality at 0.05 ppm exposed for 14 days on wheat; type: functional; conditions: 336 h
Tribolium castaneum [7] = assay: Insecticidal activity against adult Tribolium castaneum (red flour beetle) assessed as mortality at 0.05 ppm exposed for 14 days on wheat; type: functional
Cryptolestes ferrugineus [8] = assay: Insecticidal activity against adult Cryptolestes ferrugineus (rusty grain beetle) assessed as mortality at 0.0625 ppm exposed for 7 days on wheat; type: functional; conditions: 168 h
Cryptolestes ferrugineus [9] = assay: Insecticidal activity against adult Cryptolestes ferrugineus (rusty grain beetle) assessed as mortality at 0.0625 ppm exposed for 14 days on wheat; type: functional; conditions: 336 h
Sitophilus zeamais [10] = assay: Insecticidal activity against adult Sitophilus zeamais assessed as mortality at 0.0625 ppm exposed for 7 days on wheat; type: functional
Tribolium castaneum [11] = assay: Insecticidal activity against adult Tribolium castaneum (red flour beetle) assessed as mortality at 0.0625 ppm exposed for 7 days on wheat; type: functional
Tribolium castaneum [12] = assay: Reduction of progeny production in adult Tribolium castaneum (red flour beetle) at 0.0875 to 0.0375 to ppm exposed on wheat; type: functional, organism-based
Cryptolestes ferrugineus [13] = assay: Insecticidal activity against adult Cryptolestes ferrugineus (rusty grain beetle) assessed as mortality at 0.0375 ppm exposed for 14 days on wheat; type: functional; conditions: 336 h
Cryptolestes ferrugineus [14] = assay: Insecticidal activity against adult Cryptolestes ferrugineus (rusty grain beetle) assessed as mortality at 0.05 ppm exposed for 7 days on wheat; type: functional; conditions: 168 h
Tribolium castaneum [15] = assay: Insecticidal activity against adult Tribolium castaneum (red flour beetle) assessed as mortality at 0.0375 ppm exposed for 5 days on wheat; type: functional
Tribolium castaneum [16] = assay: Insecticidal activity against adult Tribolium castaneum (red flour beetle) assessed as mortality at 0.075 ppm exposed for 7 days on wheat; type: functional
Tribolium castaneum [17] = assay: Insecticidal activity against adult Tribolium castaneum (red flour beetle) assessed as mortality at 0.05 ppm exposed for 7 days on wheat; type: functional
Tribolium castaneum [18] = assay: Insecticidal activity against adult Tribolium castaneum (red flour beetle) assessed as mortality at 0.0875 ppm exposed for 5 days on wheat; type: functional
Sitophilus zeamais [19] = assay: Insecticidal activity against adult Sitophilus zeamais assessed as mortality at 0.075 ppm exposed for 14 days on wheat; type: functional
Sitophilus zeamais [20] = assay: Insecticidal activity against adult Sitophilus zeamais assessed as mortality at 0.05 ppm exposed for 14 days on wheat; type: functional
Cryptolestes ferrugineus [21] = assay: Insecticidal activity against adult Cryptolestes ferrugineus (rusty grain beetle) assessed as mortality at 0.0875 ppm exposed for 14 days on wheat; type: functional; conditions: 336 h
Tribolium castaneum [22] = assay: Insecticidal activity against adult Tribolium castaneum (red flour beetle) assessed as mortality at 0.05 ppm exposed for 5 days on wheat; type: functional
Sitophilus zeamais [23] = assay: Insecticidal activity against adult Sitophilus zeamais assessed as mortality at 0.0375 ppm exposed for 7 days on wheat; type: functional
Tribolium castaneum [24] = assay: Insecticidal activity against adult Tribolium castaneum (red flour beetle) assessed as mortality at 0.0875 ppm exposed for 14 days on wheat; type: functional
Tribolium castaneum [25] = assay: Insecticidal activity against adult Tribolium castaneum (red flour beetle) assessed as mortality at 0.0625 ppm exposed for 5 days on wheat; type: functional
Cryptolestes ferrugineus [26] = assay: Insecticidal activity against adult Cryptolestes ferrugineus (rusty grain beetle) assessed as mortality at 0.0875 ppm exposed for 5 days on wheat; type: functional; conditions: 120 h
Cryptolestes ferrugineus [27] = assay: Reduction of progeny production in adult Cryptolestes ferrugineus (rusty grain beetle) at 0.0875 to 0.0375 to ppm exposed on wheat; type: functional, organism-based
Sitophilus zeamais [28] = assay: Insecticidal activity against adult Sitophilus zeamais assessed as mortality at 0.05 ppm exposed for 5 days on wheat; type: functional
Sitophilus zeamais [29] = assay: Insecticidal activity against adult Sitophilus zeamais assessed as mortality at 0.075 ppm exposed for 7 days on wheat; type: functional
Cryptolestes ferrugineus [30] = assay: Insecticidal activity against adult Cryptolestes ferrugineus (rusty grain beetle) assessed as mortality at 0.0875 ppm exposed for 7 days on wheat; type: functional; conditions: 168 h
Tribolium castaneum [31] = assay: Insecticidal activity against adult Tribolium castaneum (red flour beetle) assessed as mortality at 0.075 ppm exposed for 14 days on wheat; type: functional
Sitophilus zeamais [32] = assay: Insecticidal activity against adult Sitophilus zeamais assessed as mortality at 0.0875 ppm exposed for 14 days on wheat; type: functional
Tribolium castaneum [33] = assay: Insecticidal activity against adult Tribolium castaneum (red flour beetle) assessed as mortality at 0.0875 ppm exposed for 7 days on wheat; type: functional
Cryptolestes ferrugineus [34] = assay: Insecticidal activity against adult Cryptolestes ferrugineus (rusty grain beetle) assessed as mortality at 0.075 ppm exposed for 14 days on wheat; type: functional; conditions: 336 h
Cryptolestes ferrugineus [35] = assay: Insecticidal activity against adult Cryptolestes ferrugineus (rusty grain beetle) assessed as mortality at 0.0375 ppm exposed for 5 days on wheat; type: functional; conditions: 120 h
Tribolium castaneum [36] = assay: Insecticidal activity against adult Tribolium castaneum (red flour beetle) assessed as mortality at 0.075 ppm exposed for 5 days on wheat; type: functional
Sitophilus zeamais [37] = assay: Insecticidal activity against adult Sitophilus zeamais assessed as mortality at 0.075 ppm exposed for 5 days on wheat; type: functional
Sitophilus zeamais [38] = assay: Insecticidal activity against adult Sitophilus zeamais assessed as mortality at 0.0375 ppm exposed for 14 days on wheat; type: functional
Sitophilus zeamais [39] = assay: Insecticidal activity against adult Sitophilus zeamais assessed as mortality at 0.0875 ppm exposed for 7 days on wheat; type: functional
Sitophilus zeamais [40] = assay: Insecticidal activity against adult Sitophilus zeamais assessed as mortality at 0.0375 ppm exposed for 5 days on wheat; type: functional
Sitophilus zeamais [41] = assay: Insecticidal activity against adult Sitophilus zeamais assessed as mortality at 0.0875 ppm exposed for 5 days on wheat; type: functional
Tribolium castaneum [42] = assay: Insecticidal activity against adult Tribolium castaneum (red flour beetle) assessed as mortality at 0.0375 ppm exposed for 14 days on wheat; type: functional
Cryptolestes ferrugineus [43] = assay: Insecticidal activity against adult Cryptolestes ferrugineus (rusty grain beetle) assessed as mortality at 0.075 ppm exposed for 5 days on wheat; type: functional; conditions: 120 h
Tribolium castaneum [44] = assay: Insecticidal activity against adult Tribolium castaneum (red flour beetle) assessed as mortality at 0.0625 ppm exposed for 14 days on wheat; type: functional
Sitophilus zeamais [45] = assay: Insecticidal activity against adult Sitophilus zeamais assessed as mortality at 0.0625 ppm exposed for 5 days on wheat; type: functional
Tribolium castaneum [46] = assay: Insecticidal activity against adult Tribolium castaneum (red flour beetle) assessed as mortality at 0.0375 ppm exposed for 7 days on wheat; type: functional
Cryptolestes ferrugineus [47] = assay: Insecticidal activity against adult Cryptolestes ferrugineus (rusty grain beetle) assessed as mortality at 0.0375 ppm exposed for 7 days on wheat; type: functional; conditions: 168 h
Cryptolestes ferrugineus [48] = assay: Insecticidal activity against adult Cryptolestes ferrugineus (rusty grain beetle) assessed as mortality at 0.0625 ppm exposed for 5 days on wheat; type: functional; conditions: 120 h

**Q.** For CC(=O)O[C@H]1C[C@](C)(O)[C@]23OC(C)(C)[C@H]([C@H](OCC(C)C)[C@@H](OCc4ccccc4)[C@]2(COCC(C)C)[C@H]1OC(C)=O)[C@H]3O [BITTERBARKOMYCIN], which Activity (Sitophilus zeamais [1]) is on record?
**A.** The Activity was 83.1%.

**Q.** And the mortality at 0.075 ppm (Cryptolestes ferrugineus [2])?
**A.** The mortality at 0.075 ppm was 98.2%.

**Q.** What about the Activity (Sitophilus zeamais [3]) of the same compound?
**A.** The Activity was “Active”.

**Q.** And the Activity (Sitophilus zeamais [4])?
**A.** The Activity was 65.1%.

**Q.** What about the mortality at 0.05 ppm (Cryptolestes ferrugineus [5]) of the same compound?
**A.** The mortality at 0.05 ppm was 47.6%.

**Q.** And the mortality at 0.05 ppm (Cryptolestes ferrugineus [6])?
**A.** The mortality at 0.05 ppm was 86.7%.

**Q.** And the Activity (Tribolium castaneum [7])?
**A.** The Activity was 86%.

**Q.** And the mortality at 0.0625 ppm (Cryptolestes ferrugineus [8])?
**A.** The mortality at 0.0625 ppm was 76.1%.

**Q.** And the mortality at 0.0625 ppm (Cryptolestes ferrugineus [9])?
**A.** The mortality at 0.0625 ppm was 90.3%.

**Q.** What about the Activity (Sitophilus zeamais [10]) of the same compound?
**A.** The Activity was 72.2%.

**Q.** What about the Activity (Tribolium castaneum [11]) of the same compound?
**A.** The Activity was 60.4%.

**Q.** And the Activity (Tribolium castaneum [12])?
**A.** Its Activity is “Active”.

**Q.** What about the mortality at 0.0375 ppm (Cryptolestes ferrugineus [13]) of the same compound?
**A.** Its mortality at 0.0375 ppm is 83.8%.

**Q.** And the mortality at 0.05 ppm (Cryptolestes ferrugineus [14])?
**A.** The mortality at 0.05 ppm was 70.7%.

**Q.** And the Activity (Tribolium castaneum [15])?
**A.** Its Activity is 19.6%.

**Q.** And the Activity (Tribolium castaneum [16])?
**A.** Its Activity is 63.1%.

**Q.** What about the Activity (Tribolium castaneum [17]) of the same compound?
**A.** Its Activity is 56.2%.

**Q.** What about the Activity (Tribolium castaneum [18]) of the same compound?
**A.** The Activity was 50%.

**Q.** And the Activity (Sitophilus zeamais [19])?
**A.** Its Activity is 92.9%.

**Q.** What about the Activity (Sitophilus zeamais [20]) of the same compound?
**A.** The Activity was 73.8%.

**Q.** And the mortality at 0.0875 ppm (Cryptolestes ferrugineus [21])?
**A.** Its mortality at 0.0875 ppm is 100%.

**Q.** What about the Activity (Tribolium castaneum [22]) of the same compound?
**A.** The Activity was 21.8%.

**Q.** What about the Activity (Sitophilus zeamais [23]) of the same compound?
**A.** The Activity was 52.4%.

**Q.** What about the Activity (Tribolium castaneum [24]) of the same compound?
**A.** Its Activity is 100%.

**Q.** What about the Activity (Tribolium castaneum [25]) of the same compound?
**A.** The Activity was 23.3%.

**Q.** What about the mortality at 0.0875 ppm (Cryptolestes ferrugineus [26]) of the same compound?
**A.** Its mortality at 0.0875 ppm is 92.9%.

**Q.** And the Activity (Cryptolestes ferrugineus [27])?
**A.** Its Activity is “Active”.

**Q.** And the Activity (Sitophilus zeamais [28])?
**A.** Its Activity is 59.1%.

**Q.** And the Activity (Sitophilus zeamais [29])?
**A.** Its Activity is 86%.

**Q.** And the mortality at 0.0875 ppm (Cryptolestes ferrugineus [30])?
**A.** The mortality at 0.0875 ppm was 100%.

**Q.** And the Activity (Tribolium castaneum [31])?
**A.** The Activity was 99.6%.

**Q.** What about the Activity (Sitophilus zeamais [32]) of the same compound?
**A.** The Activity was 98.2%.

**Q.** What about the Activity (Tribolium castaneum [33]) of the same compound?
**A.** The Activity was 68%.

**Q.** And the mortality at 0.075 ppm (Cryptolestes ferrugineus [34])?
**A.** The mortality at 0.075 ppm was 100%.

**Q.** And the mortality at 0.0375 ppm (Cryptolestes ferrugineus [35])?
**A.** The mortality at 0.0375 ppm was 44.7%.

**Q.** And the Activity (Tribolium castaneum [36])?
**A.** The Activity was 33.6%.

**Q.** And the Activity (Sitophilus zeamais [37])?
**A.** The Activity was 80.2%.

**Q.** And the Activity (Sitophilus zeamais [38])?
**A.** The Activity was 64.4%.

**Q.** What about the Activity (Sitophilus zeamais [39]) of the same compound?
**A.** Its Activity is 90.4%.

**Q.** And the Activity (Sitophilus zeamais [40])?
**A.** Its Activity is 39.8%.

**Q.** And the Activity (Sitophilus zeamais [41])?
**A.** Its Activity is 85.3%.

**Q.** And the Activity (Tribolium castaneum [42])?
**A.** Its Activity is 66%.

**Q.** And the mortality at 0.075 ppm (Cryptolestes ferrugineus [43])?
**A.** Its mortality at 0.075 ppm is 88.4%.

**Q.** What about the Activity (Tribolium castaneum [44]) of the same compound?
**A.** The Activity was 95.8%.

**Q.** And the Activity (Sitophilus zeamais [45])?
**A.** The Activity was 68.4%.

**Q.** What about the Activity (Tribolium castaneum [46]) of the same compound?
**A.** The Activity was 48.2%.

**Q.** And the mortality at 0.0375 ppm (Cryptolestes ferrugineus [47])?
**A.** Its mortality at 0.0375 ppm is 64%.

**Q.** What about the mortality at 0.0625 ppm (Cryptolestes ferrugineus [48]) of the same compound?
**A.** The mortality at 0.0625 ppm was 53.1%.

From ChEMBL document CHEMBL3044996, “Diatomaceous earths enhance the insecticidal effect of bitterbarkomycin against stored-grain insects” (2009)
